# Reference: patent publication US10155768B2, “Fused pyrimidine compound or salt thereof” (TAIHO PHARMACEUTICAL CO., LTD., priority 2016, dated 2018)
# Test: Evaluation of stability in liver microsome
# Conditions: mouse liver microsome 0.25 mg/mL, 1 μM test compound, 37° C. for 30 minutes
row,Structure (SMILES),Remaining (%)
1,"COCc1ccc(NC(=O)c2c(OCC3CCCCO3)n(C3(C)CC3)c3ncnc(N)c23)cc1 (stereo not shown) [Example 102, 4-amino-N-(4-(methoxymethyl)phenyl)-7-(1-methylcyclopropyl)-6-((tetrahydro-2H-pyran-2-yl)methoxy)-7H-pyrrolo[2,3-d]pyrimidine-5-carboxamide]",60
2,"COCc1ccc(NC(=O)c2c(OC[C@H]3CCCO3)n(C3(C)CC3)c3ncnc(N)c23)cc1 [Example 89, (R)-4-amino-N-[4-(methoxymethyl)phenyl]-7-(1-methylcyclopropyl)-6-((tetrahydrofuran-2-yl)methoxy)-7H-pyrrolo[2,3-d]pyrimidine-5-carboxamide]",69
3,"COCc1ccc(NC(=O)c2cn(C(C)(C)C(F)F)c3ncnc(N)c23)cc1 [Example 50, 4-amino-7-(1,1-difluoro-2-methylpropan-2-yl)-N-(4-(methoxymethyl)phenyl)-7H-pyrrolo[2,3-d]pyrimidine-5-carboxamide]",53
4,"COCc1ccc(NC(=O)c2cn(C3(C)CC3)c3ncnc(N)c23)cc1 [Example 36, 4-amino-N-(4-(methoxymethyl)phenyl)-7-(1-methylcyclopropyl)-7H-pyrrolo[2,3-d]pyrimidine-5-carboxamide]",73
5,"COCc1ccc(NC(=O)c2c(Br)n(C3(C)CC3)c3ncnc(N)c23)cc1 [Example 55, 4-amino-6-bromo-N-[4-(methoxymethyl)phenyl]-7-(1-methylcyclopropyl)-7H-pyrrolo[2,3-d]pyrimidine-5-carboxamide]",56
6,"[2H]C([2H])([2H])OCc1ccc(NC(=O)c2cn(C(C)(C)C)c3ncnc(N)c23)cc1 [Example 35, 4-amino-7-(tert-butyl)-N-(4-((methoxy-d3)-methyl)phenyl)-7H-pyrrolo[2,3-d]pyrimidine-5-carboxamide]",58
7,"COCc1ccc(NC(=O)c2cn(C(C)(C)C)c3ncnc(N)c23)cc1F [Example 30, 4-amino-7-(tert-butyl)-N-(3-fluoro-4-(methoxymethyl)phenyl)-7H-pyrrolo[2,3-d]pyrimidine-5-carboxamide]",54
8,"COCc1ccc(NC(=O)c2c(C#CCC3(O)CCC3)n(C3(C)CC3)c3ncnc(N)c23)cc1 [Example 103, 4-amino-6-(3-(1-hydroxycyclobutyl)prop-1-yn-1-yl)-N-(4-(methoxymethyl)phenyl)-7-(1-methylcyclopropyl)-7H-pyrrolo[2,3-d]pyrimidine-5-carboxamide]",60
9,"COCc1ccc(NC(=O)c2cn(C3(C4CC4)CC3)c3ncnc(N)c23)cc1 [Example 49, 7-{[1,1-bi(cyclopropane)]-1-yl}-4-amino-N-(4-(methoxymethyl)phenyl)-7H-pyrrolo[2,3-d]pyrimidine-5-carboxamide]",67
10,"COCc1ccc(NC(=O)c2c(OCC3CCOC3)n(C3(C)CC3)c3ncnc(N)c23)cc1 (stereo not shown) [Example 101, 4-amino-N-(4-(methoxymethyl)phenyl)-7-(1methylcyclopropyl)-6-((tetrahydrofuran-3-yl)methoxy)-7H-pyrrolo[2,3-d]pyrimidine-5-carboxamide]",68
11,"COCc1ccc(NC(=O)c2cn(C3(CF)CC3)c3ncnc(N)c23)cc1 [Example 45, 4-amino-7-(1-(fluoromethyl)cyclopropyl)-N-(4-(methoxymethyl)phenyl)-7H-pyrrolo[2,3-d]pyrimidine-5-carboxamide]",66
12,"COCc1ccc(NC(=O)c2cn(C3(C)CC3)c3ncnc(N)c23)cc1F [Example 48, 4-amino-N-(3-fluoro-4-(methoxymethyl)phenyl)-7-(1-methylcyclopropyl)-7H-pyrrolo[2,3-d]pyrimidine-5-carboxamide]",58
13,"COCc1ccc(NC(=O)c2cn(C3(C(F)F)CC3)c3ncnc(N)c23)cc1 [Example 46, 4-amino-7-(1-(difluoromethyl)cyclopropyl)-N-(4-(methoxymethyl)phenyl)-7H-pyrrolo[2,3-d]pyrimidine-5-carboxamide]",65

# More lines, now with the values ahead:
row,Remaining (%),Structure (SMILES)
1,68,"COCc1ccc(NC(=O)c2c(OCC3CCOCC3)n(C3(C)CC3)c3ncnc(N)c23)cc1 [Example 141, 4-amino-N-(4-(methoxymethyl)phenyl)-7-(1-methylcyclopropyl)-6-((tetrahydro-2H-pyran-4-yl)methoxy)-7H-pyrrolo[2,3-d]pyrimidine-5-carboxamide]"
2,58,"COCc1ccc(NC(=O)c2c(C#CC3CCOCC3)n(C3(C)CC3)c3ncnc(N)c23)cc1F [Example 205, 4-amino-N-(3-fluoro-4-(methoxymethyl)phenyl)-7-(1-methylcyclopropyl)-6-((tetrahydro-2H-pyran-4-yl)ethynyl)-7H-pyrrolo[2,3-d]pyrimidine-5-carboxamide]"
3,70,"CCOc1c(C(=O)Nc2ccc(COC)cc2)c2c(N)ncnc2n1C1(C)CC1 [Example 127, 4-amino-6-ethoxy-N-(4-(methoxymethyl)phenyl)-7-(1-methylcyclopropyl)-7H-pyrrolo[2,3-d]pyrimidine-5-carboxamide]"
4,79,"COCc1ccc(NC(=O)c2c(C#Cc3cnn(C(C)C)c3)n(C3(C)CC3)c3ncnc(N)c23)cc1 [Example 144, 4-amino-6-((1-isopropyl-1H-pyrazol-4-yl)ethynyl)-N-(4-(methoxymethyl)phenyl)-7-(1-methylcyclopropyl)-7H-pyrrolo[2,3-d]pyrimidine-5-carboxamide]"
5,88,"COCc1ccc(NC(=O)c2c(C#CCN3CC[S+]([O-])CC3)n(C3(C)CC3)c3ncnc(N)c23)cc1 [Example 178, 4-amino-N-(4-(methoxymethyl)phenyl)-7-(1-methylcyclopropyl)-6-(3-(1-oxidethiomorpholino)prop-1-yn-1-yl)-7H-pyrrolo[2,3-d]pyrimidine-5-carboxamide]"
6,90,"COCc1ccc(NC(=O)c2c(C#Cc3ccc(OC)cc3)n(C3(C)CC3)c3ncnc(N)c23)cc1 [Example 165, 4-amino-N-(4-(methoxymethyl)phenyl)-6-((4-methoxypheny)ethynyl)-7-(1-methylcyclopropyl)-7H-pyrrolo[2,3-d]pyrimidine-5-carboxamide]"
7,67,"COCc1ccc(NC(=O)c2c(C#CCC3NC(=O)NC3=O)n(C3(C)CC3)c3ncnc(N)c23)cc1 (stereo not shown) [Example 156, 4-amino-6-(3-(2,5-dioxoimidazolidin-4-yl)prop-1-yn-1-yl)-N-(4-(methoxymethyl)phenyl)-7-(1-methylcyclopropyl)-7H-pyrrolo[2,3-d]pyrimidine-5-carboxamide]"
8,70,"COCc1ccc(NC(=O)c2c(SC)n(C3(C)CC3)c3ncnc(N)c23)cc1 [Example 133, 4-amino-N-(4-methoxymethyl)phenyl-7-(1-methylcyclopropyl)-6-(methylthio)-7H-pyrrolo[2,3-d]pyrimidine-5-carboxamide]"
9,77,"COCc1ccc(NC(=O)c2c(C#CC3CCN(C)CC3)n(C3(C)CC3)c3ncnc(N)c23)cc1 [Example 183, 4-amino-N-(4-(methoxymethyl)phenyl)-7-(1-methylcyclopropyl)-6-((1-methylpiperidin-4-yl)ethynyl)-7H-pyrrolo[2,3-d]pyrimidine-5-carboxamide]"
